Reference: BindingDB's records for doi:10.1021/jm010282t (Tohoku Pharmaceutical University, 2001)

biological target: T1, Aromatase (Homo sapiens, UniProt P11511); experiment: Aromatase Assay; conditions: pH 7.5; 37 °C
T1 sequence (P11511 whole entry): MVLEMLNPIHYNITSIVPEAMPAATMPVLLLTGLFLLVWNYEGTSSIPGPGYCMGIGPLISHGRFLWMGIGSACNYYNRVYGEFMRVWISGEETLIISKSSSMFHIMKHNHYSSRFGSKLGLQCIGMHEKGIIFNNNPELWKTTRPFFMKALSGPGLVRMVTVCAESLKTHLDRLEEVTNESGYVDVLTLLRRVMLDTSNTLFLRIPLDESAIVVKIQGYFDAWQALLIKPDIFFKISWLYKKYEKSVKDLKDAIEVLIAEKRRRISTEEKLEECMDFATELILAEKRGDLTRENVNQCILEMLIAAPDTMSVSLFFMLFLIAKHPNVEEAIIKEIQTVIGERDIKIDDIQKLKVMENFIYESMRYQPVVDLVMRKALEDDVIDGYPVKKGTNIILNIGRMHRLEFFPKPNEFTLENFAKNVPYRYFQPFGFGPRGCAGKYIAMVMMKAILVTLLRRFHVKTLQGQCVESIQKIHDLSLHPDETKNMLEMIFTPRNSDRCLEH
Protocol: The enzyme activity was assayed by measuring the 3H-labeled H2O formed from [1beta-3H] Androstenedione during aromatization. After incubation, the reaction was terminated by CHCl3 extraction and centrifugation. Aliquots of the water phase were assayed for the presence of 3H2O by counting using a liquid scintillation spectrometer.

Point of comparison: `C[C@]12CCCCC1=CCC1C2CC[C@]2(C)C(=O)CCC12` (stereo partly drawn) [(2R,15S)-2,15-dimethyltetracyclo[8.7.0.0^{2,7}.0^{11,15}]heptadec-7-en-14-one], IC50 660 nM. Against it:
- CC(=O)O[C@@H]1CCC[C@@]2(CO)C1=CCC1C2CC[C@]2(C)C(=O)CCC12 (stereo partly drawn) [(2S,6R,15S)-2-(hydroxymethyl)-15-methyl-14-oxotetracyclo[8.7.0.0^{2,7}.0^{11,15}]heptadec-7-en-6-yl acetate] — 17-fold higher, 11000 nM
- C[C@]12CCC3C(CC=C4CCCC[C@@]43CO)C1CCC2=O (stereo partly drawn) [(2S,15S)-2-(hydroxymethyl)-15-methyltetracyclo[8.7.0.0^{2,7}.0^{11,15}]heptadec-7-en-14-one] — 10-fold higher, 6900 nM
- C[C@]12CCC3C(CCC4=CCCC[C@@]43CO)C1CCC2=O (stereo partly drawn) [(2S,15S)-2-(hydroxymethyl)-15-methyltetracyclo[8.7.0.0^{2,7}.0^{11,15}]heptadec-6-en-14-one] — 13-fold lower, 49 nM
- C[C@]12CCC3C(C[C@H](O)C4=CCCC[C@@]43CO)C1CCC2=O (stereo partly drawn) [(2S,8S,15S)-8-hydroxy-2-(hydroxymethyl)-15-methyltetracyclo[8.7.0.0^{2,7}.0^{11,15}]heptadec-6-en-14-one] — 2.1-fold higher, 1400 nM
- C[C@]12CCC3C(C[C@@H](O)C4=CCCC[C@@]43CO)C1CCC2=O (stereo partly drawn) [6beta,19-dihydroxyandrost-4-en-17-one] — within 1.5-fold, 940 nM
- CO[C@H]1CCC[C@@]2(CO)C1=CCC1C2CC[C@]2(C)C(=O)CCC12 (stereo partly drawn) [4beta-Methoxy-19-hydroxyandrost-5-en-17-one] — 230-fold higher, 150000 nM

Point of comparison: `C[C@]12CCC3C(C[C@@H](O)C4=CCCC[C@@]43CO)C1CCC2=O` (stereo partly drawn) [6beta,19-dihydroxyandrost-4-en-17-one], Ki 110 nM. Against it:
- C[C@]12CCCCC1=CCC1C2CC[C@]2(C)C(=O)CCC12 (stereo partly drawn) [(2R,15S)-2,15-dimethyltetracyclo[8.7.0.0^{2,7}.0^{11,15}]heptadec-7-en-14-one] — within 1.5-fold, 120 nM
- C[C@]12CCC3C(CC=C4CCCC[C@@]43CO)C1CCC2=O (stereo partly drawn) [(2S,15S)-2-(hydroxymethyl)-15-methyltetracyclo[8.7.0.0^{2,7}.0^{11,15}]heptadec-7-en-14-one] — 9.1-fold higher, 1000 nM
- C[C@]12CCC3C(CCC4=CCCC[C@@]43CO)C1CCC2=O (stereo partly drawn) [(2S,15S)-2-(hydroxymethyl)-15-methyltetracyclo[8.7.0.0^{2,7}.0^{11,15}]heptadec-6-en-14-one] — 19-fold lower, 5.8 nM
- C[C@]12CCC3C(C[C@H](O)C4=CCCC[C@@]43CO)C1CCC2=O (stereo partly drawn) [(2S,8S,15S)-8-hydroxy-2-(hydroxymethyl)-15-methyltetracyclo[8.7.0.0^{2,7}.0^{11,15}]heptadec-6-en-14-one] — 2.3-fold higher, 250 nM
